Measured values as given in patent publication US11352604B2, “Method of making cardiomyocytes from human pluripotent cells” (Wisconsin Alumni Research Foundation, priority 2016, dated 2022).

System: cTnT isoforms
Experiment: Top-down mass spectrometry of cTnT isoforms (adult to fetal AUC ratio)
Type: cell-based, human
Experimental: Freshly isolated CMs from the H9-cTnT-GFP (FIG. 1) or 19-9-11 (FIG. 2) hPSC cell lines were washed with Ca^2+-free DPBS and centrifuged at 1,100 g for 5 minutes (min) and the wash solvent was removed. The cells were first homogenized in 50 μl HEPES solution (25 mM HEPES, pH 7.4, 2.5 mM EDTA, 100 mM NaF, 1 mM DTT, 10 mM L-methionine, 1 mM PMSF, 1 mM Na3VO4, protease inhibitor (Abcam) and phosphatase inhibitors). The homogenates were centrifuged at 17,000 g for 20 min and the HEPES extract containing predominately cytosolic proteins was collected. The remaining pellets were homogenized in 40 μl trifluoroacetic acid (TFA) solution (1% TFA, 5 mM tris(2-carboxyethyl)phosphine, 5 mM L-methionine) and centrifuged at 17,000 g for 20 min. The TFA extract containing predominantly the sarcomeric proteins was collected. Bradford protein assays were performed to determine the protein concentration. The sarcomeric protein-enriched extracts were diluted to 100 ng/μl for Liquid chromatography (LC)-MS analysis.
500 ng of each sarcomeric protein-enriched extract was injected to a home-packed reverse phase chromatography (RPC) column (PLRP-S, 10 μm particle size, 1000 A pore size, 500 μm inner diameter, 25 cm long), and the proteins were separated with a gradient of 5-95% mobile phase B (0.1% formic acid in 50:50 acetonitrile:ethanol) (mobile phase A: 0.1% formic acid in H2O) at a constant flowrate of 12 μl/min. The eluting proteins were analyzed by a high-resolution quadrupole-time of flight (q-TOF) mass spectrometer (Impact II, Bruker Daltonics) via electrospray ionization. The mass spectra were collected at a scan rate of 0.5 Hz for all samples being analyzed. Analyses of top-down mass spectra were performed using the vender-specific software DataAnalysis 3.2 (Bruker Daltonics).
Quantification of the sarcomeric protein isoforms was performed as previously described. […] The area under curve (AUC) of the EIC of a specific protein isoform represents the abundance of the selected protein isoform. […] Relative quantification of protein isoform expression was measured by the ratio of the AUCs.

Question: For polyinosinic-polycytidylic acid [pI:C], which “ratio of adult to fetal cTnT isoforms” value (day 30 cardiomyocytes) is on record?
Answer: increased the ratio of adult to fetal isoforms

Question: What about the “adult to fetal cTnT isoform ratio and relative difference treated vs untreated” value (prolonged culture to day 122) of the same substance?
Answer: increased dramatically
